Test [1] concerns the target T1, phospho p-38 alpha kinase (Homo sapiens, UniProt Q16539).
T1 construct: purchased Panvera
Put plainly: P-38 alpha kinase assay (spectrophotometric, pyruvate kinase/lactate dehydrogenase coupled). Format: biochemical. The settings on record: Table 5; for IC50: assay not named, read-out: uM.

Test [2] concerns the target T2, KDR kinase (Homo sapiens, UniProt P35968, DEL940-989/E990V). Put plainly: KDR kinase assay K2. The settings on record: for inhibition at 1 µM: read-out: Results, % @ concentration μM.
Test [3] concerns the target phosphorylated p-38-alpha kinase (Homo sapiens, UniProt Q16539). Put plainly: P-38 alpha kinase assay P1. Format: biochemical. The settings on record: Method P1; 2 h pre-incubation before ATP.
Test [4] has as its target T3, Abl kinase (Homo sapiens, UniProt P00519).
T3 sequence (P00519 229-512): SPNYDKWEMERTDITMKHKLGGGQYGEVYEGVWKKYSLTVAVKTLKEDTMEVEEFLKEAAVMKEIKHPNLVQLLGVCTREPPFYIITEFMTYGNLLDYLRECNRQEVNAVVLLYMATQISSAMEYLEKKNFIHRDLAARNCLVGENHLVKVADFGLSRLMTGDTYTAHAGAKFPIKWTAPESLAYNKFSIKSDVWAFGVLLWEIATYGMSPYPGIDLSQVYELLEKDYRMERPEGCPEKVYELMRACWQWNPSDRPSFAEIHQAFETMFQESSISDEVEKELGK
Put plainly: Abl kinase assay A2. Format: biochemical. The settings on record: for IC50: Method A2, 2 h pre-incubation, 0.5 mM ATP. The method, then: (§1) IC50 values were calculated from a series of percent inhibition values determined at a range of inhibitor concentrations using software routines as implemented in the GraphPad Prism software package.

Test [5] addresses T2, KDR kinase. Nature of the test: KDR kinase assay K1. Format: biochemical. The note with it: for inhibition at 10 µM: read-out: Results, % @ concentration μM, Method K1; for IC50: Method K1. The method, then:
as §1

The target of the next test is B-Raf(V599E) kinase (Homo sapiens, UniProt P15056, V600E). Nature of the test: B-Raf(V599E) kinase assay B1. It is filed as biochemical. The settings on record: for IC50: Method B1, construct 1. The method, then:
The test compounds were incubated with the reaction mixture at 30° C. for 2 h. […] The reaction rate was calculated using the 1.5 h to 2.5 h time frame. […] IC50 values were calculated from a series of percent inhibition values determined at a range of inhibitor concentrations using software routines as implemented in the GraphPad Prism software package.

The target in test [6] is T3, Abl kinase. Nature of the test: Abl kinase assay A1. It is filed as biochemical. The note with it: for IC50: Method A1, read-out: Results, μM (IC50); for inhibition at 10 µM: read-out: Results, % @ concentration μM, Method A1. As to the method:
as §1

The mark [7] stands for this setting: read-out: Results, % @ concentration μM.

Sequence of phosphorylated p-38-alpha kinase (Q16539 1-360 isoform Q16539-2): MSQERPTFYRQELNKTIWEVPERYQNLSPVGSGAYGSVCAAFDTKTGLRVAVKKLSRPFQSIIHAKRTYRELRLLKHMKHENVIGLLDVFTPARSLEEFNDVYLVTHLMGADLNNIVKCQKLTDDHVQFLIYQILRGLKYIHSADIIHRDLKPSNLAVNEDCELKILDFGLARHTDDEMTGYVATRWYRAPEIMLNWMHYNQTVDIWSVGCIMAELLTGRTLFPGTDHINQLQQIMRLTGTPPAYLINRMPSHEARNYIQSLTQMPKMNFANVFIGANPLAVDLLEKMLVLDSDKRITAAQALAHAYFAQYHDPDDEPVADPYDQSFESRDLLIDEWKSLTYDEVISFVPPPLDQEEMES
T2 sequence (P35968 with tags, fused parts or gaps DEL940-989/E990V): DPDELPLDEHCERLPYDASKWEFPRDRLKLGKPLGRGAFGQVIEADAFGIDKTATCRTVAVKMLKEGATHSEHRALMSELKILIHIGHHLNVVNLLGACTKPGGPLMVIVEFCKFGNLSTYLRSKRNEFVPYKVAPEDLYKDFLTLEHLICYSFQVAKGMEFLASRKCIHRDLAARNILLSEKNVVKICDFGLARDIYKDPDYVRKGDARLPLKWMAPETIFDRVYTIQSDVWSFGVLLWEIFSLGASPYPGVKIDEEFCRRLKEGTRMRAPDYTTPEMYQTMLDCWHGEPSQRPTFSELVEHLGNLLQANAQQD
T1 sequence (Q16539 whole entry): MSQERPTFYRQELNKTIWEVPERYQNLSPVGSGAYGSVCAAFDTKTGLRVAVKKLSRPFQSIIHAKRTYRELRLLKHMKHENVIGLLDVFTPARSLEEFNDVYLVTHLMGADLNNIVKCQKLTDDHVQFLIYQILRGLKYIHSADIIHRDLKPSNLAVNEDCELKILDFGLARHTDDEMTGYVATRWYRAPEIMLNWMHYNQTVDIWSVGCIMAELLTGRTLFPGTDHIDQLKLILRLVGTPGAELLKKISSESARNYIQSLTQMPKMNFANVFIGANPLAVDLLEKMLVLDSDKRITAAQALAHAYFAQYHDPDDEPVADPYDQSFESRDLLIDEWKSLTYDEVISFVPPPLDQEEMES
Sequence of B-Raf(V599E) kinase (P15056 with tags, fused parts or gaps V600E): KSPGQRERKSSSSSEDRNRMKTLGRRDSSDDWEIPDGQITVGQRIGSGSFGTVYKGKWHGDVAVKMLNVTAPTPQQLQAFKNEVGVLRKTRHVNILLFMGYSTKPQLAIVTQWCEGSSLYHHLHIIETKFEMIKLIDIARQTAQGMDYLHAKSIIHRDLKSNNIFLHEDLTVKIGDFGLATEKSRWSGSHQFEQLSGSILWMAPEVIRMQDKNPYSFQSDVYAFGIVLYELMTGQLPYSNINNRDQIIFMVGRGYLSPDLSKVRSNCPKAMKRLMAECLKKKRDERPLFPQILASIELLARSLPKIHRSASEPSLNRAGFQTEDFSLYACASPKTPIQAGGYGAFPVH

As for `CC(Cc1cccc(-n2nc(-c3ccccc3F)cc2NC(=O)Nc2cccc(Cl)c2Cl)c1)C(N)=O` (stereo not shown) [Example 489, 1-(1-(3-(3-amino-2-methyl-3-oxopropyl)phenyl)-3-(2-fluorophenyl)-1H-pyrazol-5-yl)-3-(2,3-dichlorophenyl)urea], in test [1], the IC50 was 0.52 µM. In addition, the inhibition at 1 µM on KDR kinase [2] turned out to be 25%.

On to `Cn1c(=O)c(-c2cccc(NC(=O)Nc3cc(C4CCCC4)nn3-c3cccc(CC(N)=O)c3)c2)cc2cncnc21` [Example 514, 1-(1-(3-(2-amino-2-oxoethyl)phenyl)-3-cyclopentyl-1H-pyrazol-5-yl)-3-(3-(8-methyl-7-oxo-7,8-dihydropyrido[2,3-d]pyrimidin-6-yl)phenyl)urea], for which the IC50 in test [1] is 0.57 µM; in test [3], 0.011 µM; on Abl kinase [4], 0.077 µM; against KDR kinase [2], 33 nM.

For `CC(C)(C)c1cc(NC(=O)Nc2ccc(F)c(F)c2F)n(-c2cccc(CC(N)=O)c2)n1` [Example 491, 1-(1-(3-(2-amino-2-oxoethyl)phenyl)-3-tert-butyl-1H-pyrazol-5-yl)-3-(2,3,4-trifluorophenyl)urea], the results for the IC50 (in test [3]; against B-Raf(V599E) kinase) were 0.013 µM and 0.007 µM, respectively. Moreover, the figures for the inhibition at 10 µM at KDR kinase [5] and on Abl kinase [4] (setting [7]) were 77% and 78%, respectively.

For the compound `NC(=O)Cc1cccc(-n2nc(C3CCCC3)cc2NC(=O)Nc2cccc(Cl)c2Cl)c1` [Example 446, 1-(1-(3-(2-amino-2-oxoethyl)phenyl)-3-cyclopentyl-1H-pyrazol-5-yl)-3-(2,3-dichlorophenyl)urea], the IC50 in test [3] is 0.005 µM; against KDR kinase [5] it was 1.5 µM; against B-Raf(V599E) kinase, 0.016 µM; on Abl kinase [4], 4.8 µM.

As to `NC(=O)Cc1cccc(-n2nc(-c3cccs3)cc2NC(=O)Nc2cccc(Oc3cccnc3)c2)c1` [Example 502, 1-(1-(3-(2-amino-2-oxoethyl)phenyl)-3-(thiophen-2-yl)-1H-pyrazol-5-yl)-3-(3-(pyridin-3-yloxy)phenyl)urea], the IC50 was determined as 3.1 µM on Abl kinase [6] and 1300 nM at KDR kinase [2].

As to `O=C(Cc1cccc(-n2nc(C3CCCC3)cc2NC(=O)Nc2cccc(Cl)c2Cl)c1)NCC(O)CO` (stereo not shown) [Example 487, 1-(3-cyclopentyl-1-(3-(2-(2,3-dihydroxypropylamino)-2-oxoethyl)phenyl)-1H-pyrazol-5-yl)-3-(2,3-dichlorophenyl)urea], the IC50 was determined as 0.038 µM in test [1] and 0.006 µM in test [3]. For the same compound, the inhibition at 1 µM at KDR kinase [2] was found to be 20%.

Consider `Cn1c(=O)c(-c2cccc(NC(=O)Nc3cc(C(C)(C)C)nn3-c3cccc(CC(N)=O)c3)c2)cc2cncnc21` [Example 513, 1-(1-(3-(2-amino-2-oxoethyl)phenyl)-3-tert-butyl-1H-pyrazol-5-yl)-3-(3-(8-methyl-7-oxo-7,8-dihydropyrido[2,3-d]pyrimidin-6-yl)phenyl)urea], for which the IC50 in test [1] was found to be 0.41 µM; in test [3] it was 0.012 µM; against B-Raf(V599E) kinase, 0.008 µM; against Abl kinase [4], 0.023 µM.

Take `Cc1ccc(NC(=O)Nc2cc(C(C)(C)C)nn2-c2cccc(CC(N)=O)c2)cc1Nc1nccc(-c2cccnc2)n1` [Example 516, 1-(1-(3-(2-amino-2-oxoethyl)phenyl)-3-tert-butyl-1H-pyrazol-5-yl)-3-(4-methyl-3-(4-(pyridin-3-yl)pyrimidin-2-ylamino)phenyl)urea]: the IC50 in test [1] was found to be 0.45 µM; against B-Raf(V599E) kinase, 0.022 µM; against Abl kinase [4] it was 0.0018 µM.

As for `CNC(=O)c1cc(Oc2ccc(NC(=O)Nc3cc(C(C)(C)C)nn3-c3cccc(CC(N)=O)c3)cc2)ccn1` [Example 506, 1-(1-(3-(2-amino-2-oxoethyl)phenyl)-3-tert-butyl-1H-pyrazol-5-yl)-3-(4-(2-(methylcarbamoyl)pyridin-4-yloxy)phenyl)urea], the IC50 in test [1] came to 0.042 µM; in test [3] it was 0.009 µM; against KDR kinase [5], 0.021 µM; on B-Raf(V599E) kinase, 0.02 µM; against Abl kinase [4], 0.0066 µM.

As to `CC(C)(C)c1cc(NC(=O)Nc2ccc(-c3cccc4c3CNC4=O)cc2)n(-c2cccc(CC(N)=O)c2)n1` [Example 510, 1-(1-(3-(2-amino-2-oxoethyl)phenyl)-3-tert-butyl-1H-pyrazol-5-yl)-3-(4-(1-oxoisoindolin-4-yl)phenyl)urea], the IC50 worked out at 0.47 µM in test [1]; 0.12 µM in test [3]; 0.007 µM at KDR kinase [5]; 0.21 µM at B-Raf(V599E) kinase; 0.062 µM against Abl kinase [4].

As for `NC(=O)Cc1ccc(-n2nc(-c3ccccc3F)cc2NC(=O)Nc2cccc(Cl)c2Cl)cc1` [Example 466, 1-(1-(4-(2-amino-2-oxoethyl)phenyl)-3-(2-fluorophenyl)-1H-pyrazol-5-yl)-3-(2,3-dichlorophenyl)urea], the IC50 in test [1] came out at 0.007 µM; in test [3], 0.038 µM; on Abl kinase [6], 1.2 µM. Moreover, the inhibition at 10 µM at KDR kinase [5] was determined as 50%. Further, the inhibition at 1 µM at B-Raf(V599E) kinase (setting [7]) was determined as 24%.

Regarding `NC(=O)Cc1cccc(-c2ccc(C(F)(F)F)cc2NC(=O)Nc2ccc(-c3cccc4c3CNC4=O)cc2)c1` [Example 483, [1,1′-biphenyl]-2′-(3-(4-(1-oxoisoindolin-4-yl)phenyl)ureido)-4′-(trifluoromethyl)-3-acetic acid amide], the IC50 in test [1] was 0.27 µM; in test [3] it was 0.027 µM; at KDR kinase [5] it was 0.21 µM; against B-Raf(V599E) kinase, 0.014 µM; at Abl kinase [6] it was 11.3 µM.

Take `NC(=O)Cc1ccc(-n2nc(C3CCCC3)cc2NC(=O)Nc2cccc(Cl)c2Cl)cc1` [Example 467, 1-(1-(4-(2-amino-2-oxoethyl)phenyl)-3-cyclopentyl-1H-pyrazol-5-yl)-3-(2,3-dichlorophenyl)urea]: the IC50 in test [1] was 0.119 µM; in test [3] it was 0.011 µM; against KDR kinase [5] it was 2.9 µM; at B-Raf(V599E) kinase, 0.032 µM; at Abl kinase [6] it was 4.8 µM.

Consider `CC(C)(C)c1cc(NC(=O)Nc2ccc(F)cc2F)n(-c2ccc(CC(N)=O)cc2)n1` [Example 498, 1-(1-(4-(2-amino-2-oxoethyl)phenyl)-3-tert-butyl-1H-pyrazol-5-yl)-3-(2,4-difluorophenyl)urea], for which the “% @ concentration, uM” value in test [1] (@ 1 uM) is on record as 25% @1. The IC50 in test [3] is 0.041 µM; on B-Raf(V599E) kinase it was 0.074 µM. Besides, the inhibition at 10 µM came to 60% on KDR kinase [5] and 48% at Abl kinase [6].

Turning to `CC(C)(C)c1cc(NC(=O)Nc2ccc(F)cc2F)n(-c2cccc(C#N)c2)n1` [Example 499, 1-(3-tert-butyl-1-(3-cyanophenyl)-1H-pyrazol-5-yl)-3-(2,4-difluorophenyl)urea], the entries for the “% @ concentration, uM” value in test [1] (@ 0.1 uM) and in test [1] (@ 1 uM) were 78% and 95%, respectively. Moreover, the IC50 in test [3] turned out to be 0.046 µM; against KDR kinase [5] it was 0.4 µM; against B-Raf(V599E) kinase, 0.026 µM. For the same compound, at Abl kinase [6], the inhibition at 10 µM came to 88%.

In the case of `CC(C)(C)c1cc(NC(=O)Nc2cc(F)c(F)cc2F)n(-c2cccc(CC(N)=O)c2)n1` [Example 494, 1-(1-(3-(2-amino-2-oxoethyl)phenyl)-3-tert-butyl-1H-pyrazol-5-yl)-3-(2,4,5-trifluorophenyl)urea], the IC50 is 0.67 µM in test [1], 0.068 µM in test [3] and 0.007 µM against B-Raf(V599E) kinase. Further, the figures for the inhibition at 10 µM on KDR kinase [5] and on Abl kinase [6] were 82% and 96%, respectively.

(Values after patent US20090312349A1, “ANTI-INFLAMMATORY MEDICAMENTS” (priority 2004, published 2009).)
